Experimental data from article PMC9571290, “Preliminary Structure–Activity Relationship Study of the MMV Pathogen Box Compound MMV675968 (2,4-Diaminoquinazoline) Unveils Novel Inhibitors of Trypanosoma brucei brucei” (Molecules, 2022).

Legend:
[1] = system: bloodstream form of Trypanosoma brucei brucei; assay: parasite-killing kinetics and cidal or static effect; format: cell-based; settings: for cidal or static effect after inhibitor removal: IC90 and IC99, removal at 4 h (10) or 24 h (7), subculture in inhibitor-free medium; for time to total inhibition of trypanosome growth: at IC99
Experimental: Thus, they were selected, and their effect at various concentrations was assessed on the proliferation rate of the bloodstream form of Trypanosoma brucei brucei using microscopic cell count. […] After specified exposure time intervals (0, 4, 8, 12, 24, 30, 36, 48, 60, 72 h), the content of each well was harvested and counted on a Neubauer hemacytometer to determine the number of mobile parasites. The obtained values were used to plot the growth curves as parasite density (cells/mL) versus incubation time using GraphPad Prism 8.0 software.
Therefore, the ability of parasites to recover post exposure to inhibitors 10 and 7 was further evaluated. […] After that, the cells were washed three times with fresh complete medium by centrifugation at 2500 rpm for 7 min. Cell pellets were thereafter resuspended in fresh complete culture medium in a 24-well plate and subcultured under the same conditions for 68 h for compound 10 and 48 h for compound 7 to achieve the complete parasite growth pattern. Thereafter, cells were enumerated using the Neubauer cell counter at each time point. The assay was performed in duplicate, and the mean cell counts were plotted […] against time using GraphPad Prism 8.0 to assess the cidal or static effect of inhibitors.

[2] = ferric ion reducing antioxidant power (FRAP); settings: Fe^3+-reducing activity
Experimental: Iron is one of the vital elements for all parasites, including trypanosomes, as it plays a key role in pathogenesis and the host immune response. Therefore, iron bioavailability reducing agents to the parasite could be potential candidates for drug development against trypanosomiasis. To this end, we determined the capacity of the test compounds to reduce iron from ferric to ferrous status using the method described by Benzie et al.. Briefly, 25 µL of each compound (7 and 10) was added to 25 µL of a solution of Fe^3+ prepared at 1.2 mg/mL in distilled water in a 96-well microplate. The plate was incubated for 15 min at room temperature in darkness, after which 50 µL of ortho-phenanthroline (0.2% in methanol) was added to achieve final compound concentrations ranging from 400 µM to 0.19 µM. Plates were reincubated for 15 min, and the absorbance was measured at 510 nm. Ascorbic acid was used as a positive control and tested at concentrations ranging from 100 to 0.048 μg/mL. The median reducing concentration (RC50) values of compounds were determined through sigmoidal concentration–response curves using GraphPad Prism version 8.0 software.

| SMILES | cidal or static effect after inhibitor removal [1] | time to total inhibition of trypanosome growth [1] | median reducing concentration (RC50) [2] |
| --- | --- | --- | --- |
| COc1ccccc1NCc1ccc2nc(N)nc(N)c2c1 [Analog 7, 6-(((2-methoxyphenyl)amino)methyl)quinazoline-2,4-diamine] | static effect | ≤ 24 h | 96.37 µM |
| Nc1nc(N)c2cc(CNc3cc(Cl)ccc3Cl)ccc2n1 [Analog 10, 6-(((2,5-dichlorophenyl)amino)methyl)quinazoline-2,4-diamine] | cidal effect | ≤ 4 h | > 400 µM |
